Where a name gives a salt, the structure may show the parent alone.
Assays:
[1] = test system: Human peripheral blood mononuclear cells (PBMC); assay: Cytokine induction in human cells (PBMC): TNF-alpha by multiplex bead assay; format: cell-based; conditions: 21-24 hrs, lowest concentration inducing cytokine at least 2× negative control, tested 0.0001-10 micromolar
Protocol: (§1) Whole blood was obtained from healthy human donors and collected by venipuncture into vacutainer tubes or syringes containing EDTA. Human peripheral blood mononuclear cells (PBMC) were purified from the whole blood by density gradient centrifugation. Histopaque 1077 (15 mL, Sigma, St. Louis, Mo.) was transferred to 6×50 mL sterile polypropylene conical tubes. The Histopaque was overlayed with 15-25 mL of blood diluted 1:2 in Hank's Balanced Salts Solution (HBSS) (Gibco, Life Technology, Grand Island N.Y.). The tubes were then centrifuged at 1370 rpm for 30 minutes at 20° C., with no brake (400×g, GH 3.8 A Rotor).
(§2) The interface (buffy coat) containing the PBMC was collected and placed in a new sterile 50 mL conical polypropylene centrifuge tube. The PBMC were mixed with an equal volume of HBSS (about 20 mL from the interface and about 20 mL of HBSS), and then centrifuged at 1090 rpm, 10 min, 20° C., with brake (270×g, GH 3.8 A Rotor). After completing centrifugation, the cells were resuspended in 2-3 mL ACK Red blood cell lysis buffer (ammonium chloride potassium solution, Gibco, Life Technology) and incubated for 2-5 minutes at 20° C. […]
(§3) The number of viable cells were determined by counting with a Miltenyi FACS instrument (Miltenyi Biotec Inc., San Diego, Calif.) or by using a hemacytometer. […] Ten microliters of the diluted cells were then applied to the hemacytometer, and the number of viable PBMC were determined by microscopy. […]
(§4) IFN-alpha cytokine levels (pg/mL) were measured by ELISA (human IFN-α, pan specific, Mabtech, Cinncinnati, Ohio), IFN-gamma, TNF-alpha, and IP-10 cytokine levels (pg/mL) were measured by multiplex bead assay (magnetic beads, R & D Systems Minneapolis, Minn.) according to the manufacturer's instructions.
(§5) Specifically, the minimum effective concentration of each compound (micromolar) was determined as the lowest concentration of the compound that induced a measured cytokine response at a level ([…]) that was at least 2× greater than that observed with the negative control wells.

[2] = test system: Human peripheral blood mononuclear cells (PBMC); assay: Cytokine induction in human cells (PBMC): IFN-alpha by ELISA; format: cell-based; conditions: 21-24 hrs, lowest concentration inducing cytokine at least 2× negative control, tested 0.0001-10 micromolar
Protocol: as §1, §2, §3, §4, §5

[3] = test system: Human peripheral blood mononuclear cells (PBMC); assay: Cytokine induction in human cells (PBMC): IFN-gamma by multiplex bead assay; format: cell-based; conditions: 21-24 hrs, lowest concentration inducing cytokine at least 2× negative control, tested 0.0001-10 micromolar
Protocol: as §1, §2, §3, §4, §5

[4] = test system: Human peripheral blood mononuclear cells (PBMC); assay: Cytokine induction in human cells (PBMC): IP-10 by multiplex bead assay; format: cell-based; conditions: 21-24 hrs, lowest concentration inducing cytokine at least 2× negative control, tested 0.0001-10 micromolar
Protocol: as §1, §2, §3, §4, §5

melting point	Compound	MEC to Induce Cytokine TNF-alpha [1]	MEC to Induce Cytokine IFN-alpha [2]	MEC to Induce Cytokine IFN-gamma [3]	MEC to Induce Cytokine IP-10 [4]
–	CCCCc1nc2c(N)nc3ccccc3c2n1CCCCNC(=N)NC(C)C [Example 1, 1-[4-(4-amino-2-butyl-imidazo[4,5-c]quinolin-1-yl)butyl]-3-isopropyl-guanidine dihydrochloride]	0.1 µM	0.01 µM	0.1 µM	0.001 µM
–	CC(C)Cn1cnc2c(N)nc3ccccc3c21 [imiquimod, reference compound]	10 µM	10 µM	10 µM	10 µM
210 to 216 °C	CCCCc1nc2c(N)nc3ccccc3c2n1CCCCNC(=N)NC(C)C (as salt: hydrochloride) [Example 1, 1-[4-(4-amino-2-butyl-imidazo[4,5-c]quinolin-1-yl)butyl]-3-isopropyl-guanidine dihydrochloride]	–	–	–	–
172 to 174 °C	CCCCc1nc2c(N)nc3ccccc3c2n1CCCCN/C(=N/C(C)C)NC(C)C (as salt: hydrochloride) [Example 2, 1-[4-(4-amino-2-butyl-imidazo[4,5-c]quinolin-1-yl)butyl]-2,3-diisopropyl-guanidine Dihydrochloride]	–	–	–	–
–	CCCCc1nc2c(N)nc3ccccc3c2n1CCCCN/C(=N/C(C)C)NC(C)C [Example 2, 1-[4-(4-amino-2-butyl-imidazo[4,5-c]quinolin-1-yl)butyl]-2,3-diisopropyl-guanidine Dihydrochloride]	10 µM	0.1 µM	1 µM	0.1 µM

— US10118925B2, “Imidazo[4,5-c] ring compounds containing substituted guanidine groups” (3M INNOVATIVE PROPERTIES COMPANY, priority 2015, dated 2018)
